Key:
[1] = target: T1, menin-MLL-AF9 interaction (Homo sapiens, UniProt O00255); assay: Co-Immunoprecipitation (co-IP) in HEK293 cells transfected with MLL-AF9; assay type: cell-based; details: HEK293 cells transfected with MLL-AF9, FIG. 2
T1 construct: performed in HEK293 cells transfected with MLL-AF9; endogenous in cells; host or cells: HEK293 cells (transfected with MLL-AF9)
T1 sequence (O00255 1-610): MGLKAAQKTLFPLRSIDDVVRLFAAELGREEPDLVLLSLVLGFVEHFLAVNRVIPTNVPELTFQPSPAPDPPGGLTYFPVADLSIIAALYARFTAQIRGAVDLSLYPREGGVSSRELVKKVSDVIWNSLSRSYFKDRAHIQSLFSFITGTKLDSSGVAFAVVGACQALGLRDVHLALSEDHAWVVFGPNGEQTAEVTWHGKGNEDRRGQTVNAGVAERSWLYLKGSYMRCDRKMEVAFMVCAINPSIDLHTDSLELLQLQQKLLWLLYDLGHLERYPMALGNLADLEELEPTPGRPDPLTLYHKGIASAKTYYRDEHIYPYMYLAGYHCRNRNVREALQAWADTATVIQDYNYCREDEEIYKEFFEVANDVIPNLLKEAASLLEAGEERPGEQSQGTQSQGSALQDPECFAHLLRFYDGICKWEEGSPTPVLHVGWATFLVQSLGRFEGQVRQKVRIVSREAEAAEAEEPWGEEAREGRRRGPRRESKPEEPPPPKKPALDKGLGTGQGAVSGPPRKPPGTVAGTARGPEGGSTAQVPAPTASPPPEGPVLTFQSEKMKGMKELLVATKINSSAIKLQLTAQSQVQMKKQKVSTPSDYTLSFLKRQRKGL

[2] = system: MLL-AF9 transformed mouse bone marrow cells (BMC); assay: MTT cell viability assay in transformed BMC; assay type: cell-based; details: 72 h incubation, E2H-HLF transformed BMC as negative control, FIG. 3
MLL-AF9 BMC [3] = assay: Colony formation assay; assay type: cell-based; details: each round 7 days, FIG. 7
Description: FIG. 7. […] Each round takes 7 days.

Hoxa9 and Meis 1 = assay: qRT-PCR of MLL fusion downstream targets; assay type: cell-based; details: qRT-PCR in MLL-AF9 BMC, FIG. 10
Description: FIG. 10. […] B. qRT-PCR performed in MLL-AF9 BMC for Compound 175.

[4] = system: human MLL leukemia cell lines; assay: MTT cell viability assay in human leukemia cell lines; assay type: cell-based; details: 3 days of incubation, FIG. 11
MLL-AF9 leukemia = assay: In vivo efficacy in mice model of MLL-AF9 leukemia; details: once daily i.p. injections of 75 mg/kg dose, FIG. 18
Description: FIG. 18. In vivo efficacy studies with compound 108 in mice model of MLL-AF9 leukemia.

menin-MLL interaction = target: T2, menin-MLL interaction (Homo sapiens, UniProt O00255); assay: biochemical
T2 sequence (O00255 1-610): T1 sequence (O00255 1-610)
Description: Compounds that inhibit the interaction decrease the fluorescence anisotropy which is being used as a read-out for compound screening and for IC50 determination.

MLL-AF9 transformed BMC = assay: Growth curves experiments in transformed BMC; assay type: cell-based; details: MLL-AF9 BMC vs Hoxa9/Meis1 transformed BMC (negative control), FIG. 5
MLL-AF9 BMC [5] = assay: Differentiation (CD11b expression, cell morphology); assay type: cell-based; details: CD11b expression level and cell morphology, FIG. 9
[6] = system: human MLL leukemia cell lines; assay: Growth inhibition of human MLL leukemia cell lines; assay type: cell-based; details: FIG. 13 A
[7] = system: non-MLL leukemia cell lines; assay: Growth inhibition of non-MLL leukemia cell lines; assay type: cell-based; details: FIG. 13 B

In the case of `FC(F)(F)Cc1cc2c(NC3CCN(Cc4ccccc4)CC3)ncnc2s1` [Compound 108], the “inhibition of the menin-MLL-AF9 interaction” value [1] is reported as “inhibition of the menin-MLL-AF9 interaction”, the inhibition of proliferation [2] is reported as “selectively inhibit proliferation of MLL leukemia cells” and the morphology of colonies (MLL-AF9 BMC [3]) is reported as “changes morphology of colonies”. The “expression of Hoxa9 and Meis 1” value (Hoxa9 and Meis 1) was “downregulate expression of downstream targets of MLL fusion proteins”, the growth inhibition [4] was “selectively inhibit growth of human MLL leukemia cell lines” and the “survival of leukemic mice” value (MLL-AF9 leukemia) was “Increase in survival of leukemic mice”. The IC50 (menin-MLL interaction) was 0.1 to 0.5 µM.

With `N#Cc1cc2cc(CN3CCC(Nc4ncnc5sc(CC(F)(F)F)cc45)CC3)ccc2[nH]1` [Compound 175, 5-((4-((6-(2,2,2-trifluoroethyl)thieno[2,3-d]pyrimidin-4-yl)amino)piperidin-1-yl)methyl)-1H-indole-2-carbonitrile] the “inhibition of the menin-MLL-AF9 interaction” value [1] was “inhibition of the menin-MLL-AF9 interaction”, the “selectivity in growth curves” value (MLL-AF9 transformed BMC) was “great selectivity of the compound towards MLL fusion protein transformed cells” and the differentiation (MLL-AF9 BMC [5]) was “Differentiation induced”. For the same molecule, the “expression of Hoxa9 and Meis 1” value (Hoxa9 and Meis 1) was “downregulate expression of downstream targets of MLL fusion proteins”, the growth inhibition [6] was “selectively inhibits growth of human MLL leukemia cell lines” and the growth inhibition [7] was “limited effect”. It also gave an IC50 (menin-MLL interaction) of under 0.1 µM.
